Data published in ChEMBL document CHEMBL5143564, “PES derivative PESA is a potent tool to globally profile cellular targets of PES” (Bioorg Med Chem Lett, 2022).
The source made the active and inactive calls. The calls are words filed in the database; no cut-off is given here.

What was measured:
[1] = target: Coronin-1A (Homo sapiens) (UniProt P31146); assay: Binding affinity to coronin-1A in human MDA-MB-453 cells measured after 6 hrs by pull-down assay; type: cell-based; conditions: dose <= 20.0 µM, DDE = dose-dependent effect
[2] = target: Elongation factor 2 (Homo sapiens) (UniProt P13639); assay: Binding affinity to elongation factor 2 in human MDA-MB-453 cells measured after 6 hrs by pull-down assay; type: cell-based; conditions: dose <= 20.0 µM, DDE = dose-dependent effect
Plastin-2 (Homo sapiens) = target: T1, Plastin-2 (Homo sapiens) (UniProt P13796); assay: Binding affinity to plastin-2 in human MDA-MB-453 cells measured after 6 hrs by pull-down assay; type: cell-based; conditions: dose <= 20.0 µM, DDE = dose-dependent effect
T1 sequence (whole entry): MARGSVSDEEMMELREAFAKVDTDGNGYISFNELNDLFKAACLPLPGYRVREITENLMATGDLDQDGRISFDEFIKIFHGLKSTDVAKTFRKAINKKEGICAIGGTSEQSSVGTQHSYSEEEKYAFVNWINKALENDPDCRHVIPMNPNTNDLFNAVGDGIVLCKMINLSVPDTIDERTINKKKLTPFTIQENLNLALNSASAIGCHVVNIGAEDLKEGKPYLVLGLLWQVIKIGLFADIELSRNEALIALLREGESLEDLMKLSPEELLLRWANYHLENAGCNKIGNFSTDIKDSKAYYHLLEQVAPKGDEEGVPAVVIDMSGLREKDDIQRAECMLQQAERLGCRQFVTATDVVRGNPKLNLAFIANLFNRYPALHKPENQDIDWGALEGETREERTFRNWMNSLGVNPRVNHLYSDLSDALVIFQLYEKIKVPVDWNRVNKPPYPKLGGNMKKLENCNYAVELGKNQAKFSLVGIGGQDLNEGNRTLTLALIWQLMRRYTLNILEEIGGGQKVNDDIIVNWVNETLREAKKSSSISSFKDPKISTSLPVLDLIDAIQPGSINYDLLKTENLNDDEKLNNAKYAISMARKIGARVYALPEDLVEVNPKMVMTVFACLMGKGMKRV

[3] = target: Tubulin alpha (Homo sapiens) (UniProt P0DPH7+P68366+Q71U36+P68363+Q9BQE3+Q6PEY2+A6NHL2+Q9NY65); assay: Binding affinity to alpha-tubulin in human MDA-MB-453 cells measured after 6 hrs by pull-down assay; type: cell-based; conditions: dose <= 20.0 µM, DDE = dose-dependent effect
Homo sapiens [4] = organism: Homo sapiens; assay: Binding affinity to ADP-bound full-length human HSP70 assessed as Cys574 adduct formation at SBDalpha domain by LC-MS/MS analysis
Homo sapiens [5] = organism: Homo sapiens; assay: Binding affinity to ADP-bound full-length human HSP70 assessed as Cys603 adduct formation by size exclusion chromatography
[6] = target: T2, D-3-phosphoglycerate dehydrogenase (Homo sapiens) (UniProt O43175); assay: Binding affinity to D-3-phosphoglycerate dehydrogenase in human DOHH-2 cells measured after 6 hrs by pull-down assay; type: cell-based; conditions: DDE = dose-dependent effect
T2 sequence (whole entry): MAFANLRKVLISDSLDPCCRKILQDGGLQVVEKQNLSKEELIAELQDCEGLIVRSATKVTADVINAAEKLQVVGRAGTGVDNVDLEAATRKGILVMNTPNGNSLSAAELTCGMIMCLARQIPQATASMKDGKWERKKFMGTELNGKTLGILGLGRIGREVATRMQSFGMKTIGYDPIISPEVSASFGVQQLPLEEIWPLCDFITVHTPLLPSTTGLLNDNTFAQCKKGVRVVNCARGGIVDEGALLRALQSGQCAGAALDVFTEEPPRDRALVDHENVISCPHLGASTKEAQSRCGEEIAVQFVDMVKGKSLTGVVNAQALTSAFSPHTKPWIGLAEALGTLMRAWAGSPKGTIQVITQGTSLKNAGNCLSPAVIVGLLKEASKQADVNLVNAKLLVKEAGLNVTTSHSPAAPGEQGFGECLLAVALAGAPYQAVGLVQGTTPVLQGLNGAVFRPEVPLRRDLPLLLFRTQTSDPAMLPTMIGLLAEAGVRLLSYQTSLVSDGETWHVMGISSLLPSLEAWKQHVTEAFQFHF

[7] = target: T3, Glutathione S-transferase omega-1 (Homo sapiens) (UniProt P78417); assay: Binding affinity to GSTO1 in human MDA-MB-453 cells measured after 6 hrs by pull-down assay; type: cell-based; conditions: dose <= 20.0 µM, DDE = dose-dependent effect
T3 sequence (whole entry): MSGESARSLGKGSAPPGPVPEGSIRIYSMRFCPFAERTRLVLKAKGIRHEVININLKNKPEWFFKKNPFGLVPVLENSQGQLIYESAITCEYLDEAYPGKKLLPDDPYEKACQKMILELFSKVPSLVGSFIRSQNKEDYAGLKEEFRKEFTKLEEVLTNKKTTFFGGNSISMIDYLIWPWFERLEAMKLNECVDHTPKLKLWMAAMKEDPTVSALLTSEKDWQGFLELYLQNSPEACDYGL

[8] = target: T4, Peroxiredoxin-1 (Homo sapiens) (UniProt Q06830); assay: Binding affinity to PRDX1 in human DOHH-2 cells by MS analysis; type: cell-based
T4 sequence (whole entry): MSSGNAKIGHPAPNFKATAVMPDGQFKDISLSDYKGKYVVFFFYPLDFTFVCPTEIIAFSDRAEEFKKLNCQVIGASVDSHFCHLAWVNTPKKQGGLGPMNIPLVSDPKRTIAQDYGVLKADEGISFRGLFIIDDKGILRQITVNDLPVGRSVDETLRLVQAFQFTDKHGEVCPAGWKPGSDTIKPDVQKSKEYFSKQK

[9] = target: T5, Protein disulfide-isomerase A6 (Homo sapiens) (UniProt Q15084); assay: Binding affinity to PDIA6 in human DOHH-2 cells by MS analysis; type: cell-based
T5 sequence (whole entry): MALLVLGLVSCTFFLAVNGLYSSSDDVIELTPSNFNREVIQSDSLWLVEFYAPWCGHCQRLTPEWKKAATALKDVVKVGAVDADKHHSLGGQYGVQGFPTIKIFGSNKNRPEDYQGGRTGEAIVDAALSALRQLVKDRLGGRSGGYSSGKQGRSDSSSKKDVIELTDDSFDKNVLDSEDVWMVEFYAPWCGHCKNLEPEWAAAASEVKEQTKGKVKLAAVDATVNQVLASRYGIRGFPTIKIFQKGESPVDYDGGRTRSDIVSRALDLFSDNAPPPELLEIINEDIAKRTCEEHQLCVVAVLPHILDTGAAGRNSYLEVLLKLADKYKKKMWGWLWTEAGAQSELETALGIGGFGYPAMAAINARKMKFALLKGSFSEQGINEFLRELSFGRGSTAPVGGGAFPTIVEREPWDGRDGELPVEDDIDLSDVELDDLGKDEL

[10] = target: Glutathione S-transferase 3, mitochondrial (Homo sapiens) (UniProt O14880); assay: Binding affinity to MGST3 in human DOHH-2 cells by MS analysis; type: cell-based
Glutathione S-transferase 3, mitochondrial (Homo sapiens), sequence (O14880 whole entry): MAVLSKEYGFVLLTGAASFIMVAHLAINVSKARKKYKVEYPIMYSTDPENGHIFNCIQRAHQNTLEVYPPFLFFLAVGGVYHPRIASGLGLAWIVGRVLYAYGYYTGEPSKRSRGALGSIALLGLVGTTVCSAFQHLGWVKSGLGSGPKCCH

Coronin-1A (Homo sapiens), sequence (P31146 whole entry): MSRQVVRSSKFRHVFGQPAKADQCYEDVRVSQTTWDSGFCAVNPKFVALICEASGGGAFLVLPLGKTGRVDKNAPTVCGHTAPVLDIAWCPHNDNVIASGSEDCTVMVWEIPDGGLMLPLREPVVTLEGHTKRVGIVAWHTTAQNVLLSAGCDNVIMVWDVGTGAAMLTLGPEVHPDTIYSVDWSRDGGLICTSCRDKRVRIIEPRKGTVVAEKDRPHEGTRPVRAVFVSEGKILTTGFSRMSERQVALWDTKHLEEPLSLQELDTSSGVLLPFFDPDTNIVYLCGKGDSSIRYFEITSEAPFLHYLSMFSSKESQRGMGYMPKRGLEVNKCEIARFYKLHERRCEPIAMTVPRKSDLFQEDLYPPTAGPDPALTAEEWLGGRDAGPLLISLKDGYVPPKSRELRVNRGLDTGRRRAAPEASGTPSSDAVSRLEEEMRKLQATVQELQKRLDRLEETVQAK

Activity [1]: Dde | Activity [2]: Dde | Activity (Plastin-2 (Homo sapiens)): Dde | Activity [3]: Dde | Activity (Homo sapiens [4]): Active | Activity (Homo sapiens [5]): Active | Activity [6]: Dde | Activity [7]: Dde | Activity [8]: Active | Activity [9]: Active | Activity [10]: Active
Compound: C#Cc1cccc(C#CS(N)(=O)=O)c1
